4 compounds from the supplement of paper PMC4862054 can be followed below.

Common to all, as to details: incubation time: 72 h
Assay [1] relates to Hs578T. The assay can be described thus: drug sensitivity score (DSS), CellTox Green (DSS (AUC-based score)); higher = stronger drug effect (viability inhibition or cytotoxicity); extreme values may be limits of the assay. The essentials: (§1)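 Each compound occupied 5 concentrations in 10-fold steps over its own 10,000-fold range in 384-well plates, into which breast cancer cell lines were seeded as 20 µl suspension. Following 72 h of incubation, CellTox Green fluorescence (485/520 nm) was measured, and CellTiter-Glo luminescence was measured after 10 min at room temperature. Plates were individually normalised to 0.1 % DMSO and a positive kill control. From the area under the fitted dose-response curve, a drug sensitivity score was calculated.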

For assay [2], the system named is MDA-MB-453. The description is as above. The essentials:
as §1

Assay [3] relates to MFM-223. Described as above. The procedure, abridged: as §1
Assay [4] deals with MDA-MB-468. Described as above. The procedure, abridged: as §1
The subject of assay [5] is CAL-120. The assay is described as above. The essentials:
as §1

Assay [6] deals with MDA-MB-231. Described as above. The essentials: as §1
Assay [7] concerns HDQ-P1. The assay is described as above. The procedure, abridged:
as §1

The subject of assay [8] is BT-549. The description is as above. The essentials:
as §1

Assay [9] concerns HCC1599. Described as above. The essentials:
as §1

For assay [10], the system named is CAL-85-1. Described as above. The essentials: as §1
The subject of assay [11] is CAL-51. Described as above. The essentials: as §1
Assay [12] concerns DU-4475. The description is as above. The procedure, abridged: as §1
For assay [13], the system named is MCF-10A. The assay is described as above. The procedure, abridged:
as §1

Assay [14] deals with CAL-148. The description is as above. The essentials: as §1
For assay [15], the system named is BT-474. Described as above. The procedure, abridged:
as §1

Assay [16] relates to HCC1143. The assay is described as above. The essentials:
as §1

Assay [17] relates to MDA-MB-436. Described as above. The essentials:
as §1

In assay [18] the test system is HCC1937. The assay is described as above. The procedure, abridged:
as §1

In assay [19] the test system is CAL-51. As to the kind of experiment: drug sensitivity score (DSS), CellTiter-Blue viability (DSS (AUC-based score)); higher = stronger viability inhibition; extreme values may be limits of the assay. The essentials:
(§2)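 The drug sensitivity score was derived from the area under a fitted dose-response curve. To obtain the curves, breast cancer cells (20 µl suspension) were plated into 384-well plates with compound at 5 or 9 concentrations and kept for 72 h. Viability was measured by CellTiter-Blue fluorescence at 560/590 nm, with each plate normalised to 0.1 % DMSO and a positive kill control.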
In general terms: Alamar Blue is a resazurin reagent that responds to reducing activity.

Assay [20] has as its system CAL-148. The description is as above. The procedure, abridged:
as §2

The test system of assay [21] is MDA-MB-436. The description is as above. The essentials: as §2

“And” between values parts separate entries of the source, which are not always exact repeats. Equal values may be shown once.

In the case of `COc1cc2c(Oc3ccc(NC(=O)C4(C(=O)Nc5ccc(F)cc5)CC4)cc3F)ccnc2cc1OCCCN1CCOCC1` [Foretinib], the drug sensitivity score in assay [1] is 2.65; in assay [2] it was 0; in assay [3], 0; in assay [4] it was 3.1; in assay [5], 0; in assay [6] it was 10.4. Further, the drug sensitivity score came to 0 in assay [7]; 0 in assay [8]; 0 in assay [9]; 0 in [10]; 4.29 in [11]; 0 in assay [12]. For the same compound, the drug sensitivity score in assay [13] came out at 0; in assay [14], 1.71; in assay [15], 0; in assay [16] it was 1.04; in assay [17], 0; in assay [18], 0. Also, the drug sensitivity score in assay [19] is 4.07; in [20] it was 2.11; in [21], 3.35.
For the compound `NC1(c2ccc(-c3nc4ccn5c(=O)[nH]nc5c4cc3-c3ccccc3)cc2)CCC1` [MK-2206], the drug sensitivity score in assay [1], in [2], in assay [3], in assay [4], in [5] and in assay [6] was 0 throughout. Also, the drug sensitivity score in [7], in assay [8], in assay [9], in assay [10], in [11] and in [12] was 0 each time. Further, the drug sensitivity score in assay [13] came out at 0; in assay [14], 3.64; in assay [15] it was 0; in assay [16] it was 0; in assay [17] it was 0; in assay [18], 0. Further, the values for the drug sensitivity score in assay [19], in [20] and in [21] were 1.04, 1.65 and 2.37, respectively.
Regarding `N[C@@H](Cc1ccc(N(CCCl)CCCl)cc1)C(=O)O` [Melphalan], the drug sensitivity score in [1] stood at 12.4; in assay [2] it was 16.9; in assay [3], 16.5; in assay [4], 19.7; in [5], 9.72; in assay [6] it was 23.9. For the same compound, the drug sensitivity score in [7] worked out at 18.4; in assay [8], 13.4; in [9], 11.8; in [10] it was 18.1; in [11], 21.7; in assay [12], 11.5. Also, the drug sensitivity score worked out at 19.3 in assay [13]; 18.5 in assay [14]; 18.1 in [15]; 7.18 in [16]; 8.42 in assay [17]; 15.4 in assay [18]. Further, the drug sensitivity score in assay [19], in assay [20] and in [21] was 0 each time.
`CO[C@H](C(=O)[C@@H](O)[C@@H](C)O)[C@@H]1Cc2cc3cc(O[C@H]4C[C@@H](O[C@@H]5C[C@@H](O)[C@H](O)[C@@H](C)O5)[C@H](O)[C@@H](C)O4)c(C)c(O)c3c(O)c2C(=O)[C@H]1O[C@H]1C[C@@H](O[C@@H]2C[C@@H](O)[C@@H](O[C@@H]3C[C@](C)(O)[C@H](O)[C@@H](C)O3)[C@@H](C)O2)[C@H](O)[C@@H](C)O1` [Plicamycin]: the drug sensitivity score in assay [1] is 1.28; in assay [2] it was 1.33; in [3], 0; in assay [4], 9.57; in assay [5], 0; in [6], 0. In addition, the drug sensitivity score in [7] is 0; in assay [8], 0; in assay [9], 0; in [10], 1.48; in assay [11], 7.69; in assay [12] it was 0. In addition, the drug sensitivity score was determined as 6.07 in assay [13]; 0 in assay [14]; 0 in [15]; 0 in [16]; 0 in assay [17]; 0 in [18]. Further, the drug sensitivity score in assay [19] was 22.1 and 22.3; in assay [20], 25.6 and 24.2; in [21] it was 23.3 and 27.5.
